Results: ChEMBL document CHEMBL4765227, “Hit to lead optimization of a series of N-[4-(1,3-benzothiazol-2-yl)phenyl]acetamides as monoacylglycerol lipase inhibitors with potential anticancer activity” (Eur J Med Chem, 2016)

Legend:
Assay type in all cases: functional
Conditions in all cases: read-out: GI
HOP-92 = assay: Growth inhibition of human HOP-92 cells at 10 uM incubated for 48 hrs by sulforhodamine B assay relative to control
SR = assay: Growth inhibition of human SR cells at 10 uM incubated for 48 hrs by sulforhodamine B assay relative to control
M14 = assay: Growth inhibition of human M14 cells at 10 uM incubated for 48 hrs by sulforhodamine B assay relative to control
NCI-H23 = assay: Growth inhibition of human NCI-H23 cells at 10 uM incubated for 48 hrs by sulforhodamine B assay relative to control
UACC-257 = assay: Growth inhibition of human UACC-257 cells at 10 uM incubated for 48 hrs by sulforhodamine B assay relative to control
OVCAR-4 = assay: Growth inhibition of human OVCAR-4 cells at 10 uM incubated for 48 hrs by sulforhodamine B assay relative to control
SF-268 = assay: Growth inhibition of human SF-268 cells at 10 uM incubated for 48 hrs by sulforhodamine B assay relative to control
MDA-MB-435 = assay: Growth inhibition of human MDA-MB-435 cells at 10 uM incubated for 48 hrs by sulforhodamine B assay relative to control
KM12 = assay: Growth inhibition of human KM12 cells at 10 uM incubated for 48 hrs by sulforhodamine B assay relative to control
CCRF-CEM = assay: Growth inhibition of human CCRF-CEM cells at 10 uM incubated for 48 hrs by sulforhodamine B assay relative to control
SNB-19 = assay: Growth inhibition of human SNB-19 cells at 10 uM incubated for 48 hrs by sulforhodamine B assay relative to control
RPMI-8226 = assay: Growth inhibition of human RPMI-8226 cells at 10 uM incubated for 48 hrs by sulforhodamine B assay relative to control
RXF 393 = assay: Growth inhibition of human RXF 393 cells at 10 uM incubated for 48 hrs by sulforhodamine B assay relative to control
HT-29 = assay: Growth inhibition of human HT-29 cells at 10 uM incubated for 48 hrs by sulforhodamine B assay relative to control
HCC 2998 = assay: Growth inhibition of human HCC 2998 cells at 10 uM incubated for 48 hrs by sulforhodamine B assay relative to control
PC-3 = assay: Growth inhibition of human PC-3 cells at 10 uM incubated for 48 hrs by sulforhodamine B assay relative to control
HCT-116 = assay: Growth inhibition of human HCT-116 cells at 10 uM incubated for 48 hrs by sulforhodamine B assay relative to control
SK-MEL-5 = assay: Growth inhibition of human SK-MEL-5 cells at 10 uM incubated for 48 hrs by sulforhodamine B assay relative to control
U-251 = assay: Growth inhibition of human U-251 cells at 10 uM incubated for 48 hrs by sulforhodamine B assay relative to control
MDA-MB-231 = assay: Growth inhibition of human MDA-MB-231 cells at 10 uM incubated for 48 hrs by sulforhodamine B assay relative to control
SF-295 = assay: Growth inhibition of human SF-295 cells at 10 uM incubated for 48 hrs by sulforhodamine B assay relative to control
Hs-578T = assay: Growth inhibition of human Hs-578T cells at 10 uM incubated for 48 hrs by sulforhodamine B assay relative to control
NCI-H460 = assay: Growth inhibition of human NCI-H460 cells at 10 uM incubated for 48 hrs by sulforhodamine B assay relative to control
LOX IMVI = assay: Growth inhibition of human LOX IMVI cells at 10 uM incubated for 48 hrs by sulforhodamine B assay relative to control
TK-10 = assay: Growth inhibition of human TK-10 cells at 10 uM incubated for 48 hrs by sulforhodamine B assay relative to control
SK-OV-3 = assay: Growth inhibition of human SK-OV-3 cells at 10 uM incubated for 48 hrs by sulforhodamine B assay relative to control
MDA-MB-468 = assay: Growth inhibition of human MDA-MB-468 cells at 10 uM incubated for 48 hrs by sulforhodamine B assay relative to control
A549 = assay: Growth inhibition of human A549/ATCC cells at 10 uM incubated for 48 hrs by sulforhodamine B assay relative to control
COLO 205 = assay: Growth inhibition of human COLO 205 cells at 10 uM incubated for 48 hrs by sulforhodamine B assay relative to control
DU-145 = assay: Growth inhibition of human DU-145 cells at 10 uM incubated for 48 hrs by sulforhodamine B assay relative to control
NCI-H522 = assay: Growth inhibition of human NCI-H522 cells at 10 uM incubated for 48 hrs by sulforhodamine B assay relative to control
UO-31 = assay: Growth inhibition of human UO-31 cells at 10 uM incubated for 48 hrs by sulforhodamine B assay relative to control
OVCAR-5 = assay: Growth inhibition of human OVCAR-5 cells at 10 uM incubated for 48 hrs by sulforhodamine B assay relative to control
OVCAR-8 = assay: Growth inhibition of human OVCAR-8 cells at 10 uM incubated for 48 hrs by sulforhodamine B assay relative to control
NCI-H226 = assay: Growth inhibition of human NCI-H226 cells at 10 uM incubated for 48 hrs by sulforhodamine B assay relative to control
UACC-62 = assay: Growth inhibition of human UACC-62 cells at 10 uM incubated for 48 hrs by sulforhodamine B assay relative to control
T47D = assay: Growth inhibition of human T47D cells at 10 uM incubated for 48 hrs by sulforhodamine B assay relative to control
SN12C = assay: Growth inhibition of human SN12C cells at 10 uM incubated for 48 hrs by sulforhodamine B assay relative to control
SF-539 = assay: Growth inhibition of human SF-539 cells at 10 uM incubated for 48 hrs by sulforhodamine B assay relative to control
ACHN = assay: Growth inhibition of human ACHN cells at 10 uM incubated for 48 hrs by sulforhodamine B assay relative to control
SW-620 = assay: Growth inhibition of human SW-620 cells at 10 uM incubated for 48 hrs by sulforhodamine B assay relative to control
NCI-H322M = assay: Growth inhibition of human NCI-H322M cells at 10 uM incubated for 48 hrs by sulforhodamine B assay relative to control
HL-60(TB) = assay: Growth inhibition of human HL-60(TB) cells at 10 uM incubated for 48 hrs by sulforhodamine B assay relative to control
HCT-15 = assay: Growth inhibition of human HCT-15 cells at 10 uM incubated for 48 hrs by sulforhodamine B assay relative to control

## O=C(CN1CCCCC1)Nc1ccc(-c2nc3ccccc3s2)cc1
HOP-92
  inhibition of growth at 10 µM: 44.5%
SR
  inhibition of growth at 10 µM: 56%
M14
  inhibition of growth at 10 µM: -5.76%
NCI-H23
  inhibition of growth at 10 µM: 20.8%
UACC-257
  inhibition of growth at 10 µM: 2.05%
OVCAR-4
  inhibition of growth at 10 µM: 4.89%
SF-268
  inhibition of growth at 10 µM: 0.48%
MDA-MB-435
  inhibition of growth at 10 µM: -6.67%
KM12
  inhibition of growth at 10 µM: 3.6%
CCRF-CEM
  inhibition of growth at 10 µM: 10.4%
SNB-19
  inhibition of growth at 10 µM: -0.02%
RPMI-8226
  inhibition of growth at 10 µM: 11.3%
RXF 393
  inhibition of growth at 10 µM: 13%
HT-29
  inhibition of growth at 10 µM: 42.2%
HCC 2998
  inhibition of growth at 10 µM: 9.72%
PC-3
  inhibition of growth at 10 µM: 15.5%
HCT-116
  inhibition of growth at 10 µM: 5.5%
SK-MEL-5
  inhibition of growth at 10 µM: 9.16%
U-251
  inhibition of growth at 10 µM: 22.8%
MDA-MB-231
  inhibition of growth at 10 µM: 41.5%
SF-295
  inhibition of growth at 10 µM: 4.43%
Hs-578T
  inhibition of growth at 10 µM: 12.6%
NCI-H460
  inhibition of growth at 10 µM: -1.42%
LOX IMVI
  inhibition of growth at 10 µM: 21%
TK-10
  inhibition of growth at 10 µM: -14.8%
SK-OV-3
  inhibition of growth at 10 µM: 4.61%
MDA-MB-468
  inhibition of growth at 10 µM: 73.7%
A549
  inhibition of growth at 10 µM: 5.89%
COLO 205
  inhibition of growth at 10 µM: -5.35%
DU-145
  inhibition of growth at 10 µM: 0.74%
NCI-H522
  inhibition of growth at 10 µM: -4.5%
UO-31
  inhibition of growth at 10 µM: 6.94%
OVCAR-5
  inhibition of growth at 10 µM: -4.63%
OVCAR-8
  inhibition of growth at 10 µM: -3.73%
NCI-H226
  inhibition of growth at 10 µM: 11.3%
UACC-62
  inhibition of growth at 10 µM: 5.84%
T47D
  inhibition of growth at 10 µM: 17.8%
SN12C
  inhibition of growth at 10 µM: 6.04%
SF-539
  inhibition of growth at 10 µM: -0.41%
ACHN
  inhibition of growth at 10 µM: -5.42%
SW-620
  inhibition of growth at 10 µM: -9.04%
NCI-H322M
  inhibition of growth at 10 µM: -11.9%
HL-60(TB)
  inhibition of growth at 10 µM: 15.8%
HCT-15
  inhibition of growth at 10 µM: 28%

## O=C(CN1CCOCC1)Nc1ccc(-c2nc3ccccc3s2)cc1
HOP-92
  inhibition of growth at 10 µM: 16.7%
SR
  inhibition of growth at 10 µM: -2.12%
M14
  inhibition of growth at 10 µM: -1.15%
NCI-H23
  inhibition of growth at 10 µM: 4.49%
UACC-257
  inhibition of growth at 10 µM: -1.38%
OVCAR-4
  inhibition of growth at 10 µM: -0.52%
SF-268
  inhibition of growth at 10 µM: -10.3%
MDA-MB-435
  inhibition of growth at 10 µM: -7.79%
KM12
  inhibition of growth at 10 µM: -6.84%
CCRF-CEM
  inhibition of growth at 10 µM: 4.51%
SNB-19
  inhibition of growth at 10 µM: -0.79%
RPMI-8226
  inhibition of growth at 10 µM: 6%
RXF 393
  inhibition of growth at 10 µM: -11.4%
HT-29
  inhibition of growth at 10 µM: -3.04%
HCC 2998
  inhibition of growth at 10 µM: 12%
PC-3
  inhibition of growth at 10 µM: 6.98%
HCT-116
  inhibition of growth at 10 µM: 3.9%
SK-MEL-5
  inhibition of growth at 10 µM: 7.27%
U-251
  inhibition of growth at 10 µM: 10.5%
MDA-MB-231
  inhibition of growth at 10 µM: 3.16%
SF-295
  inhibition of growth at 10 µM: 1.81%
Hs-578T
  inhibition of growth at 10 µM: -9.77%
NCI-H460
  inhibition of growth at 10 µM: 0.34%
LOX IMVI
  inhibition of growth at 10 µM: 0.08%
TK-10
  inhibition of growth at 10 µM: -12%
SK-OV-3
  inhibition of growth at 10 µM: -21%
MDA-MB-468
  inhibition of growth at 10 µM: 107%
A549
  inhibition of growth at 10 µM: 6.19%
COLO 205
  inhibition of growth at 10 µM: -15.3%
DU-145
  inhibition of growth at 10 µM: -9.1%
NCI-H522
  inhibition of growth at 10 µM: 5.46%
UO-31
  inhibition of growth at 10 µM: 4.97%
OVCAR-5
  inhibition of growth at 10 µM: 6.58%
OVCAR-8
  inhibition of growth at 10 µM: -2.44%
NCI-H226
  inhibition of growth at 10 µM: 4.99%
UACC-62
  inhibition of growth at 10 µM: -0.01%
T47D
  inhibition of growth at 10 µM: 6.73%
SN12C
  inhibition of growth at 10 µM: -1.02%
SF-539
  inhibition of growth at 10 µM: 10.3%
ACHN
  inhibition of growth at 10 µM: -4.03%
SW-620
  inhibition of growth at 10 µM: -7.93%
NCI-H322M
  inhibition of growth at 10 µM: -0.11%
HL-60(TB)
  inhibition of growth at 10 µM: -0.57%
HCT-15
  inhibition of growth at 10 µM: 6.26%
